Results reported in US6632794B1, “Insulin-like growth factor agonist molecules” (Genentech, Inc., priority 1997, dated 2003).

Assays:
[1] = test system: Zucker Diabetic Fatty (ZDF) rats; experiment: Long-term administration to diabetic rats incl. glucose tolerance test; format: in vivo, rat; conditions: for change in blood glucose two hours following the glucose challenge: glucose tolerance test day 14, 2 g/kg ip, 150 μg tid
Description: Obese male Zucker Diabetic Fatty (ZDF) rats (6-7 weeks of age, 225-250 g, Genetic Models Inc., Indianapolis, Ind. 46268) were group housed (3/cage) in a room controlled for temperature and lighting and fed the pelleted rat diet specified by the breeders (Purina 5008, 6% fat breeder chow) and tap water ad libitum. After three days acclimation, a blood sample was obtained from the tail vein for measurement of blood glucose and insulin, which was measured by rat-specific RIA (Linco Research Inc., St. Charles, Mo.). Animals were randomized into four treatment groups and into cages to give groups balance so as to have equivalent initial blood glucose levels, insulin levels, and body weights.
The experiment consisted of four groups of rats with seven rats per group.
1.0 The mutant (Leu^24,Ala^31)hIGF-I was prepared at two concentrations (1.5 mg/ml, and 0.5 mg/ml) so that with three injections per day two doses were given (a total of 450 μg/d or 150 μg/d). rhIGF-I was prepared at one concentration (1.5 mg/ml) so that with three injections per day one dose was given (450 μg/d). A fourth group of rats were given the excipient. The injections, each of 100 μl volume, were given at 7am, 1pm, and 7pm for 15 days without disrupting the controlled diurnal lighting of the vivarium room. Body weights were measured each day at 1 pm.
Blood samples were collected from non-fasted rats on the evening before the first day of dosing and on days 3, 7, and 10. Blood samples (400 μl) on days 3, 7, and 10 were taken by bleeding from a tail vein one hour after the mid-day injection. The blood was allowed to clot, and serum was separated and stored before analysis.
A glucose tolerance test was performed on day 14 of the study. Rats received their regular morning injection and then their food was withdrawn. After a 3-5-hour fast a blood sample (400 μl) was taken via the tail vein. Rats then received 2 g/kg dextrose(50%) by intraperitoneal (ip) injection. A blood sample (200 μl) was taken via tail vein at 10, 60, and 120 minutes after dextrose administration. Blood was allowed to clot and serum was separated and stored for measurement of glucose and insulin concentrations. After the glucose tolerance test was completed, animals were re-fed.
On day 15, one hour after the morning injection, rats were asphyxiated with carbon dioxide and bled by cardiac puncture. Blood was allowed to clot and serum was separated and frozen. Spleen, thymus, heart, liver, kidney, and perirenal fat were removed, blotted dry, and immediately weighed.
Statistical comparisons for each time point were made by an analysis of variance with a Duncan's Multiple Range test. A p value of <0.05 was considered as being statistically significant. All data are represented as the mean +SEM, with seven animals per treatment group.

dwarf rats = experiment: Long-term administration to GH-deficient dwarf (dw/dw) rats; format: in vivo, rat; conditions: 150 μg of IGF-I agonist as printed
IGFBP-3 = IGFBP-3 (Homo sapiens, UniProt P17936); experiment: ^125I-IGF-I competitive binding plate assay, IGFBP-3; conditions: displacement of ^125I-IGF-I, FIG. 7
Chain of IGFBP-3 (P17936 28-291): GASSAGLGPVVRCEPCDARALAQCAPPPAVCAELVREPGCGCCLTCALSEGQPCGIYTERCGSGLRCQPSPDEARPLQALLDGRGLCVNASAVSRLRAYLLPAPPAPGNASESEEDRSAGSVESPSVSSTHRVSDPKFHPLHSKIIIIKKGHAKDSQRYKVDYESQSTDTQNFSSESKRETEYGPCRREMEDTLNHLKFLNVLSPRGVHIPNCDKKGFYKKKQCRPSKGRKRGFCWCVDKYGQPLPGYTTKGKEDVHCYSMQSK
Description: (§1) The mutant (Leu^24,Ala^31)hIGF-I was also tested for its ability to displace radio-labeled rhIGF-I off the IGFBPs in a competitive binding assay. This assay involves coating recombinant human (rh) IGFBP-1 or rhIGFBP-3 (160 ng/ml) onto 96-well plates overnight, blocking the plates for one hour with 0.5% BSA, adding rhIGF-I (250-0.08 ng/ml) or (Leu^24,Ala^31)hIGF-I for 1 hour, then adding 20,000 cpm of ^125I-IGF-I and incubating for 2 hours before washing and counting.
(§2) As an additional assay of peptide activity, several peptides were tested in an assay using ^125I-labeled IGF-I to measure inhibition of IGFBP binding, as described in Example 1 (Assay 3). Serial dilutions of peptide were added to an IGFBP-1 or an IGFBP-3 plate. Thereafter, ^125I-labeled IGF-I was added and the plates were incubated for 2 hours. The plates were then washed and counted to determine the amount of bound IGF-I.

L7 murine fibroblasts = conditions: Bayne et al.; cited from earlier work
[2] = test system: endogenous IGFBPs present in human serum; experiment: Displacement of ^125I-IGF-I from IGFBPs in human serum (FPLC-SEC); format: binding; conditions: normal human serum, IGF mutant 40 μg/ml, mean ± SD, n = 3
Description: To determine if the IGF mutant could displace IGF-I from endogenous IGFBPs present in human serum, the following experiment was performed. Radiolabeled rhIGF-I (^125-IGF-I) was incubated with normal human serum samples at a concentration of 33 ng/ml for 16 hr at 4° C. to allow for the formation of […] complexes. […] The samples (n=3) were then analyzed by FPLC size-exclusion chromatography (FPLC-SEC) to determine the relative size and amounts of the ^125I-IGF-I:IGFBP complexes.
Data are expressed as cpm per fraction (n=1).
This Example tests an IGFBP-3-specific peptide, BP15, for its ability to block the binding of ^125I-IGF-I in human serum. Human serum was incubated with ^125I-IGF-I±the peptide and the amount of tracer bound to IGFBPs via size-exclusion chromatography was measured.

[3] = biological target: T1, recombinant human (rh) IGFBP-1 (Homo sapiens, UniProt P08833); experiment: ^125I-IGF-I competitive binding plate assay, IGFBP-1; conditions: displacement of ^125I-IGF-I, FIG. 6
T1 sequence (P08833 26-259): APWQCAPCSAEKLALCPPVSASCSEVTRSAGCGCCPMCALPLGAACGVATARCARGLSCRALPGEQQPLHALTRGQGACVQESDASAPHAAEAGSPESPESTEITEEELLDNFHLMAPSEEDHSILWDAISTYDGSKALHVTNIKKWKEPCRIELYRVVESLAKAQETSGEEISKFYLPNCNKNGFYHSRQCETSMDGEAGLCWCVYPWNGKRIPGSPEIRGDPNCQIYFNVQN
Description: as §1, §2

[4] = Day 10, 150 μg three times a day
[5] = day 13, 150 μg three times a day SC
[6] = glucose tolerance test day 14, 150 μg tid

Substance: IGF-I: native-sequence recombinant human insulin-like growth factor-I (Genentech)
- rise in blood glucose, percentage change from basal [1, 4]: 25±10%
- body weight gain [1, 5]: 114.5 ± 1.6 g
- insulin in response to the glucose challenge [1, 6]: 12.2 ± 0.7 ng/mL
- change in blood glucose two hours following the glucose challenge [1]: 39 ± 12 mg/dL

Substance: (Leu^24,Ala^31)hIGF-I
- total IGF-I (rat and human) in blood (dwarf rats): rise in total IGF-I
- binding affinity to recombinant IGFBP-3 (IGFBP-3): affinity only several fold different from that of wild-type hIGF-I
- rise in blood glucose, percentage change from basal ([1]; Day 10, 50 μg three times a day): 84±20%
- rise in blood glucose, percentage change from basal [1, 4]: 74±22%
- body weight gain ([1]; day 13, 50 μg three times a day SC): 100 ± 2.1 g
- body weight gain [1, 5]: 105.1 ± 2.3 g
- insulin in response to the glucose challenge ([1]; glucose tolerance test day 14, 50 μg tid): 10.2 ± 0.7 ng/mL
- insulin in response to the glucose challenge [1, 6]: 10.6 ± 0.6 ng/mL
- change in blood glucose two hours following the glucose challenge [1]: 59 ± 11 mg/dL
- reduction in activity, ^3H thymidine incorporation (L7 murine fibroblasts): more than 200 fold
- Free (˜7 kDa) ^125I-IGF-I, percent of total radioactivity ([2]; 0 hr): 9.3 ± 2.3%
- ^125I-IGF-I in ˜44 kDa range, percent of total radioactivity ([2]; 0 hr): 60.5 ± 0.8%
- ^125I-IGF-I in ˜150 kDa range, percent of total radioactivity ([2]; 0 hr): 30.3 ± 1.4%
- Free (˜7 kDa) ^125I-IGF-I, percent of total radioactivity ([2]; 0.5 hr): 38.2 ± 3.7%
- ^125I-IGF-I in ˜44 kDa range, percent of total radioactivity ([2]; 0.5 hr): 37.3 ± 2.9%
- ^125I-IGF-I in ˜150 kDa range, percent of total radioactivity ([2]; 0.5 hr): 24.4 ± 0.8%
- Free (˜7 kDa) ^125I-IGF-I, percent of total radioactivity ([2]; 3 hr): 61.9 ± 2.6%
- ^125I-IGF-I in ˜44 kDa range, percent of total radioactivity ([2]; 3 hr): 27.8 ± 1.5%
- ^125I-IGF-I in ˜150 kDa range, percent of total radioactivity ([2]; 3 hr): 10.3 ± 1.1%
- Free (˜7 kDa) ^125I-IGF-I, percent of total radioactivity ([2]; 24 hr): 81.9 ± 0.5%
- ^125I-IGF-I in ˜44 kDa range, percent of total radioactivity ([2]; 24 hr): 12.6 ± 0.4%
- ^125I-IGF-I in ˜150 kDa range, percent of total radioactivity ([2]; 24 hr): 5.5 ± 0.1%
- binding affinity to recombinant IGFBP-1 [3]: affinity only several fold different from that of wild-type hIGF-I
